Reference: publication PMC12019328, “Discovery of an ApoE4-targeted small-molecule SirT1 enhancer for the treatment of Alzheimer’s disease” (Scientific Reports, 2025)
“And” between values parts separate entries of the source, which are not always exact repeats. Equal values may be shown once.

Experiments:
[1] = tested on: SirT1 mRNA in Kelly cells; test: SirT1 mRNA in Kelly neuroblastoma cells; format: cell-based, human; conditions: 5 µM, 24 h, vs DMSO control
Method: Human neuroblastoma ‘Kelly’ cells (genotype APOE3/APOE4) were plated in 96-well plates at 50K cells per well and were grown overnight in RPMI 1640 supplemented with 2 mM Glutamine, 10% FBS and 1% Pen-Strep. Cells were treated with 5 µM DDL-214, -218, or -219; or DMSO vehicle (n = 8 per compound). Twenty-four hours later, medium was removed, cells washed and lysed as described above for N2a-E4 cells.
Total RNA was isolated from cells or brain tissue (Qiagen RNEasy kit). Total RNA (0.5–1.0 µg) mRNA was then converted to cDNA (SuperScript™ III First-Strand Synthesis SuperMix kit; Thermo Fisher), and gene mRNA levels were measured using a gene-specific qRT-PCR Taqman assays (Thermo Fisher). Gene mRNA levels were normalized to GAPDH mRNA levels measured either in the same cDNA sample or in the same qPCR reaction using multiplexing of gene-of-interest/VIC and GAPDH/FAM, normalized by the delta-delta-Ct method.

[2] = In vivo pharmacokinetic analysis, brain levels after oral gavage; parameters: species or system C57BL/6J mice; conditions: for brain levels: single time point one hour, oral gavage 30 mg/Kg, n = 1
Method: […] One hour later, mice were euthanized by pentobarbital over-anesthesia and trans-cardial collection of blood for isolation of plasma by centrifugation at 10,000 x g for 10 min at 4 °C. Brain tissue was collected for analysis, frozen on dry ice and stored at -80 °C before analysis.
For LC/MS/MS analysis, tissue samples were homogenized in a bead beater using 5 volumes of ice-cold 80% acetonitrile (1/5; mg of tissue/ µL of 80% ACN). Solutions were clarified by centrifugation (16,000 x g, 5 min) and the supernatants were transferred to new tubes and lyophilized. Samples were reconstituted in 100 µL of 50/50/0.1 (water/acetonitrile/formic acid) before analysis via liquid chromatography-tandem mass spectrometry.
A 6460 triple quadrupole mass spectrometer (Agilent Technologies) coupled to a 1290 Infinity HPLC system (Agilent Technologies) with a Phenomenex analytical column (Kinetex 1.7 μm C18 100 Å 100 × 2.1 mm) was used for HPLC. The HPLC method utilized a mixture of solvent A (99.9/1 water/formic acid) and solvent B (99.9/1 acetonitrile/formic acid) and a gradient was used for the elution of the compounds (min/%B: 0/20, 3/20, 19/99, 20/99, 21/20, 30/20).
An internal standard (IS; Reserpine) was added to every sample to account for compound loss during sample processing. Standards were made in drug naïve brain and plasma with increasing amounts of DDL-214- (S1,S2: 0.1 pmol/ S3,S4: 1 pmol/ S5,S6: 10 pmol/ S7,S8: 100 pmol/ S9,S10: 1000 pmol). The standard curve was made by plotting the amount of each compound per standard vs. the ratio of measured chromatographic peak areas corresponding to DDL-214 (DDL-214 -/Reserpine). The trendline equation was then used to calculate the absolute concentrations of DDL-214/-218/-219 in brain tissue and plasma.

[3] = Observation of mice behavior in the PK study; format: in vivo; conditions: oral gavage 10 or 30 mg/Kg
Method: C57BL/6J mice were administered DDL-214, -218, or -219 (n = 3 per compound) by oral gavage at a dose of 30 mg/kg in a volume of 5 mL/Kg based on mouse weight. One hour later, mice were euthanized by pentobarbital over-anesthesia and trans-cardial collection of blood for isolation of plasma by centrifugation at 10,000 x g for 10 min at 4 °C. Brain tissue was collected for analysis, frozen on dry ice and stored at -80 °C before analysis.

[4] = tested on: SirT1 protein in N2a-E4 cells; test: SirT1 protein levels in N2a-E4 cells (AlphaLISA); format: cell-based, murine; conditions: N2a-E4 cells, 5 µM, 24 h, vs DMSO control
Method: Relative SirT1 mRNA and protein enhancement by racemate DDL-214 and enantiomers DDL-218 and − 219 was determined in murine neuroblastoma cells stably transfected with ApoE4 (N2a-E4)[25]. All test compounds in DMSO were prepared at 2x the final concentration in DMEM supplemented with 10% fetal bovine serum (FBS) and 1% pen-strep (PS) and 50 µL of each loaded into individual wells of a 96-well plate. Previously cultured N2a-E4 were then trypsinized, harvested, centrifuged, and counted; then 50 µL of cell suspension adjusted to 400 cells/µL was added to each well. The plate was then incubated at 37 °C, 5% CO2 for 48 h. Cells were treated with DDL-214, DDL-218, or DDL-219 at 5 µM final then incubated for 24 h. After incubation, the cells were lysed with 50 µL of ice-cold lysis buffer (0.4% SDS, 3.5% Triton X-100, 0.02% sodium deoxycholate, 28 mM TRIS pH 8) complemented with 1X final Halt™ Protease and Phosphatase Inhibitor Cocktail (Thermo Fisher catalog # 78442), placed on ice for 10 min and at -80 °C, followed by 3 freeze/thaw cycles.
An AlphaLISA comprising streptavidin donor beads (Revvity catalog # 6760002 S), biotinylated anti-SirT1 N-terminal antibody (monoclonal 19A7AB4, Abcam catalog # ab110304), and acceptor beads (Revvity catalog # 6772001) conjugated to the anti-SirT1 C-terminal antibody (monoclonal 1F3, Abcam catalog # ab104833) was used to determine SirT1 protein levels. […] The plates were read using an Envision plate reader.
Figure S3B. […] Compound treatment was done at 5 and 50 µM. SirT1 levels were measured by AlphaLISA followed and normalized to protein […]
Brain tissue was homogenized in PBS (pH 7.4) (1: 3 weight(mg)/volume(µL)) and the protein concentration of was determined using the Micro BCA™ Protein Assay Kit (Thermo Fisher Scientific, Cat#23235). […]
The % of the unbound drug (fu,bound) was calculated using the following equation: fu,bound = [normalized peak area in buffer side / normalized peak area in brain side] x 100 Liver Microsome Stability [t1/2 (min)] […]

SMILES | SirT1 mRNA [1] | brain Cmax ([2]; oral 30 mg/Kg, time course study, 30 mg/kg) | brain Cmax ([2]; oral gavage 10 mg/Kg, wildtype mouse, at one hour, 10 mg/kg) | brain levels ([2]; 30 mg/kg) | changes in mice behavior indicative of drug-induced toxicity [3] | SirT1 protein levels [4]
CC(N)C(=O)OC(C)(C)Cc1ccncc1 (centres unmarked) [DDL-214] | higher than DMSO control, but the difference was not significant | ~ 9400 ng/g and 42.3 µM | 1270 ng/g and 5.7 µM | ~ 3000 ng/g and 13.5 µM | No notable changes in mice behavior | increased SirT1 protein levels
CC(N)C(=O)OC(C)(C)Cc1ccncc1 (centres unmarked) [DDL-219] |  |  |  | ~ 6500 ng/g and 29.2 µM | No notable changes in mice behavior | 
